Test results from patent publication US11179348B2, “Combination comprising pterostilbene for the treatment of cancer” (FUNDACIÓN UNIVERSIDAD CATÓLICA DE VALENCIA SAN VICENTE …, priority 2015, dated 2021).

Legend:
A2058 melanoma = assay: In vivo growth of A2058 melanoma xenografts in nu/nu mice; parameters: species or system human; settings: A2058-RFP; 35 days after inoculation; Pter 30 mg/kg i.v. every 48 h and/or CRC infusion 0.3 μg/h
MeWo melanoma = assay: In vivo growth of MeWo melanoma xenografts in nu/nu mice; parameters: species or system human; settings: MeWo-RFP; 35 days after inoculation; Pter 30 mg/kg i.v. every 48 h and/or CRC infusion 0.3 μg/h
MelJuso melanoma = assay: In vivo growth of MelJuso melanoma xenografts in nu/nu mice; parameters: species or system human; settings: MelJuso-RFP; 35 days after inoculation; Pter 30 mg/kg i.v. every 48 h and/or CRC infusion 0.3 μg/h
AsPC-1 pancreatic cancer = assay: In vivo growth of AsPC-1 pancreatic cancer xenografts; parameters: species or system human; settings: AsPC-1-RFP; 28 days after inoculation; Pter and/or CRC
BxPC-3 pancreatic cancer = assay: In vivo growth of BxPC-3 pancreatic cancer xenografts; parameters: species or system human; settings: BxPC-3-RFP; 35 days after inoculation; Pter and/or CRC
[1] = system: glucocorticoid receptors (GR); assay: GR content of human cancer cells by [3H]-labeled ligand whole-cell binding assay
corticosterone = assay: Plasma corticosterone levels (ELISA) in tumor-bearing mice; type: in vivo; settings: 12 h circadian time
Description: (§1) Measurement of ACTH, Corticosterone, and NORA Levels.
(§2) Plasma levels of ACTH (Calbiotech, Inc., Spring Valley, Calif.), corticosterone (Kamiyama Biomedical Co., Seattle, Wash.), and NORA (IBL, Hamburg, Germany) were quantified by ELISA according to the instructions of the suppliers.

ACTH = assay: Plasma ACTH levels (ELISA) in tumor-bearing mice; type: in vivo; settings: 6 h circadian time
Description: as §1, §2

C[C@]12C[C@H](O)[C@H]3[C@@H](CCC4=CC(=O)CC[C@@]43C)[C@@H]1CC[C@@H]2C(=O)CO [CRC, corticosterone, reference compound]
Tumor vol. (A2058 melanoma): 857 ± 185 mm^3
Tumor vol. (MeWo melanoma): 426 ± 116 mm^3
Tumor vol. (MelJuso melanoma): 240 ± 94 mm^3
Tumor vol. (AsPC-1 pancreatic cancer): 1066 ± 235 mm^3
Tumor vol. (BxPC-3 pancreatic cancer): 588 ± 158 mm^3
GR number (binding sites/cell) ([1]; A2058-RFP tumors, day 35): 80 ± 7 10^3 GR/cell
GR number (binding sites/cell) ([1]; AsPC-1-RFP tumors, day 28): 67 ± 7 10^3 GR/cell
GR number (binding sites/cell) ([1]; BxPC-3-RFP tumors, day 35): 134 ± 36 10^3 GR/cell
GR number (binding sites/cell) ([1]; MeWo-RFP tumors, day 35): 49 ± 7 10^3 GR/cell
GR number (binding sites/cell) ([1]; MelJuso-RFP tumors, day 35): 46 ± 6 10^3 GR/cell
CRC (corticosterone; A2058-bearing mice, day 35): 205 ± 48 ng/mL plasma
CRC (corticosterone; AsPC-1-bearing mice, day 28): 324 ± 48 ng/mL plasma
CRC (corticosterone; BxPC-3-bearing mice, day 35): 177 ± 36 ng/mL plasma
CRC (corticosterone; MeWo-bearing mice, day 35): 177 ± 29 ng/mL plasma
CRC (corticosterone; MelJuso-bearing mice, day 35): 164 ± 41 ng/mL plasma
ACTH (ACTH; AsPC-1-bearing mice, day 28): 106 ± 17 pg/mL plasma
ACTH (ACTH; BxPC-3-bearing mice, day 35): 55 ± 12 pg/mL plasma
